Results taken from PubChem BioAssay AID248 (DTP/NCI, 2004).
Where “and” joins values, the source holds several entries; their conditions need not be identical. Equal entries are not always repeated. Toxic doses and inconclusive results are not listed. No stated cut-off is given here; in the data, active means T/C of 150% or more; inactive means T/C below 125%.

System: L1210 leukemia ip in BDF1 mice, survival T/C
Assay: NCI In Vivo Anticancer Drug Screen. Data for tumor model L1210 Leukemia (intraperitoneal) in B6D2F1 (BDF1) mice
Conditions: endpoint: mean survival time, higher = longer survival
Method in brief: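 Each compound was tested against a transplantable tumor grown in mice. The endpoint was survival, with treated animals benchmarked against vehicle controls as a simple ratio.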

[1] = dose: 50.0 mg/kg/injection, schedule: Q01DX009 (ip), vehicle: Klucel (hydroxypropylcellulose) (HPC)
[2] = dose: 100.0 mg/kg/injection, schedule: Q01DX009 (ip), vehicle: Klucel (hydroxypropylcellulose) (HPC)
[3] = dose: 100.0 mg/kg/injection, schedule: Q04DX003 (ip), vehicle: Klucel (hydroxypropylcellulose) (HPC)
[4] = dose: 200.0 mg/kg/injection, schedule: Q01DX009 (ip), vehicle: Klucel (hydroxypropylcellulose) (HPC)
[5] = dose: 200.0 mg/kg/injection, schedule: Q04DX003 (ip), vehicle: Klucel (hydroxypropylcellulose) (HPC)
[6] = dose: 400.0 mg/kg/injection, schedule: Q01DX009 (ip), vehicle: Klucel (hydroxypropylcellulose) (HPC)
[7] = dose: 400.0 mg/kg/injection, schedule: Q04DX003 (ip), vehicle: Klucel (hydroxypropylcellulose) (HPC)
[8] = dose: 25.0 mg/kg/injection, schedule: Q01DX009 (ip), vehicle: saline with Tween-80
[9] = dose: 50.0 mg/kg/injection, schedule: Q01DX009 (ip), vehicle: saline with Tween-80
[10] = dose: 100.0 mg/kg/injection, schedule: Q04DX002 (ip), vehicle: Klucel (hydroxypropylcellulose) (HPC)
[11] = dose: 200.0 mg/kg/injection, schedule: Q04DX002 (ip), vehicle: Klucel (hydroxypropylcellulose) (HPC)
[12] = dose: 50.0 mg/kg/injection, schedule: Q01DX001 (ip), vehicle: carboxymethylcellulose (CMC)
[13] = dose: 100.0 mg/kg/injection, schedule: Q01DX001 (ip), vehicle: carboxymethylcellulose (CMC)
[14] = dose: 200.0 mg/kg/injection, schedule: Q01DX001 (ip), vehicle: carboxymethylcellulose (CMC)
[15] = dose: 400.0 mg/kg/injection, schedule: Q01DX001 (ip), vehicle: carboxymethylcellulose (CMC)

Measured: T/C

Nc1ccc(F)cc1[N+](=O)[O-]
inactive: [1] 106 % of control | [2] 93 % of control | [3] 105 % of control | [4] 95 % of control | [5] 94 % of control | [6] 90 % of control | [7] 91 % of control

O=c1c2ccccc2[nH]c(=S)n1C1CCCCC1
inactive: [2] 99 % of control | [3] 90 % of control | [4] 103 % of control | [5] 101 % of control | [6] 98 % of control | [7] 100 % of control

CC1(C)N=C(N)N=C(N)N1c1cccc(CC(=O)Nc2ccc(S(=O)(=O)F)cc2)c1
inactive: dose: 0.8 mg/kg/injection, schedule: Q01DX009 (ip), vehicle: saline 101 % of control | dose: 4.0 mg/kg/injection, schedule: Q01DX009 (ip), vehicle: saline 100 % of control | dose: 20.0 mg/kg/injection, schedule: Q01DX009 (ip), vehicle: saline 110 % of control | dose: 25.0 mg/kg/injection, schedule: Q01DX009 (ip), vehicle: Klucel (hydroxypropylcellulose) (HPC) 108 % of control | [8] 103 % of control | [1] 113 % of control | [9] 100 % of control | dose: 88.0 mg/kg/injection, schedule: Q01DX009 (ip), vehicle: saline with Tween-80 102 % of control | [2] 109 % of control | dose: 100.0 mg/kg/injection, schedule: Q01DX009 (ip), vehicle: saline 117 % of control | dose: 132.0 mg/kg/injection, schedule: Q01DX009 (ip), vehicle: saline with Tween-80 121 % of control | dose: 150.0 mg/kg/injection, schedule: Q01DX009 (ip), vehicle: Klucel (hydroxypropylcellulose) (HPC) 105 % of control | dose: 300.0 mg/kg/injection, schedule: Q01DX009 (ip), vehicle: saline with Tween-80 89 % of control

CC1(C)OC(=O)C(C(=O)O)C1c1ccccc1 (stereo not drawn)
inactive: dose: 100.0 mg/kg/injection, schedule: Q01DX001 (ip), vehicle: saline 97 % of control | dose: 200.0 mg/kg/injection, schedule: Q01DX001 (ip), vehicle: saline 94 % of control

Fc1c(F)c(F)c(-c2ccccc2)c(F)c1F
inactive: dose: 25.6 mg/kg/injection, schedule: Q04DX002 (ip), vehicle: saline with Tween-80 92 % of control | dose: 64.0 mg/kg/injection, schedule: Q04DX002 (ip), vehicle: saline with Tween-80 95 % of control | dose: 160.0 mg/kg/injection, schedule: Q04DX002 (ip), vehicle: saline with Tween-80 95 % of control | dose: 400.0 mg/kg/injection, schedule: Q04DX002 (ip), vehicle: saline with Tween-80 95 % of control

CC(C)c1nc(C=O)c(C=O)n1Cc1ccccc1
inactive: [8] 100 % of control and 90 % of control | dose: 25.0 mg/kg/injection, schedule: Q04DX002 (ip), vehicle: saline with Tween-80 101 % of control and 103 % of control | dose: 25.0 mg/kg/injection, schedule: Q04DX003 (ip), vehicle: carboxymethylcellulose (CMC) 92 % of control | dose: 50.0 mg/kg/injection, schedule: Q01DX001 (ip), vehicle: saline with Tween-80 89 % of control | [9] 102 % of control and 103 % of control | dose: 50.0 mg/kg/injection, schedule: Q04DX002 (ip), vehicle: saline with Tween-80 95 % of control and 101 % of control | dose: 50.0 mg/kg/injection, schedule: Q04DX003 (ip), vehicle: carboxymethylcellulose (CMC) 95 % of control | dose: 100.0 mg/kg/injection, schedule: Q01DX001 (ip), vehicle: saline with Tween-80 96 % of control | dose: 100.0 mg/kg/injection, schedule: Q01DX009 (ip), vehicle: saline with Tween-80 94 % of control and 105 % of control | [10] 105 % of control | dose: 100.0 mg/kg/injection, schedule: Q04DX002 (ip), vehicle: other 98 % of control and 89 % of control | dose: 100.0 mg/kg/injection, schedule: Q04DX002 (ip), vehicle: saline with Tween-80 95 % of control and 86 % of control | dose: 100.0 mg/kg/injection, schedule: Q04DX003 (ip), vehicle: carboxymethylcellulose (CMC) 100 % of control | dose: 200.0 mg/kg/injection, schedule: Q01DX001 (ip), vehicle: saline with Tween-80 94 % of control | [11] 107 % of control | dose: 200.0 mg/kg/injection, schedule: Q04DX002 (ip), vehicle: other 98 % of control

NC(=S)N/N=C1\CCCC\C1=N/NC(N)=S
inactive: [12] 101 % of control | [13] 109 % of control | [14] 101 % of control | [15] 104 % of control

O=C(C=C(C(F)(F)F)C(F)(F)F)c1ccc([N+](=O)[O-])cc1
inactive: dose: 3.13 mg/kg/injection, schedule: Q01DX009 (ip), vehicle: other 105 % of control | dose: 3.13 mg/kg/injection, schedule: Q04DX003 (ip), vehicle: other 100 % of control | dose: 6.25 mg/kg/injection, schedule: Q01DX009 (ip), vehicle: other 110 % of control | dose: 6.25 mg/kg/injection, schedule: Q04DX003 (ip), vehicle: other 95 % of control | dose: 12.5 mg/kg/injection, schedule: Q04DX003 (ip), vehicle: other 100 % of control and 103 % of control | dose: 25.0 mg/kg/injection, schedule: Q04DX003 (ip), vehicle: other 96 % of control

O=C(O)C1CCC1C(=O)O (stereo not drawn)
inactive: dose: 100.0 mg/kg/injection, schedule: Q04DX002 (ip), vehicle: saline 90 % of control | dose: 200.0 mg/kg/injection, schedule: Q04DX002 (ip), vehicle: saline 90 % of control | dose: 400.0 mg/kg/injection, schedule: Q04DX002 (ip), vehicle: saline 87 % of control

CCOC=Nc1cc[n+]([O-])nc1C
inactive: dose: 43.75 mg/kg/injection, schedule: Q04DX002 (ip), vehicle: saline 104 % of control | dose: 87.5 mg/kg/injection, schedule: Q04DX002 (ip), vehicle: saline 104 % of control | dose: 175.0 mg/kg/injection, schedule: Q04DX002 (ip), vehicle: saline 104 % of control

CCCCCCCCCCCCNC(=S)NCCCC
inactive: dose: 50.0 mg/kg/injection, schedule: Q04DX002 (ip), vehicle: Klucel (hydroxypropylcellulose) (HPC) 91 % of control | [10] 95 % of control | [11] 98 % of control

CC1C(=O)CCC2(C)CCCCC12 (stereo not drawn)
inactive: dose: 75.0 mg/kg/injection, schedule: Q01DX001 (ip), vehicle: other 103 % of control | dose: 150.0 mg/kg/injection, schedule: Q01DX001 (ip), vehicle: other 101 % of control | dose: 300.0 mg/kg/injection, schedule: Q01DX001 (ip), vehicle: other 103 % of control

O=C(OC1CC2CC1C1CCCC21)c1ccc([N+](=O)[O-])cc1 (stereo not drawn)
inactive: [12] 90 % of control | [13] 87 % of control | [2] 104 % of control | [14] 92 % of control | [4] 100 % of control | [15] 95 % of control | [6] 97 % of control

COc1ccc(-c2c(N)nc(=S)[nH]c2C(=O)O)cc1
inactive: [2] 97 % of control | [3] 100 % of control | [4] 94 % of control | [5] 101 % of control | [6] 103 % of control | [7] 106 % of control
